From ChEMBL document CHEMBL1151440, “Safety and pharmacokinetics of GSK364735, a human immunodeficiency virus type 1 integrase inhibitor, following single and repeated administration in healthy adult subjects” (Antimicrob Agents Chemother, 2007)

How the values were obtained:
[1] = system: Human immunodeficiency virus 1; assay: Antiviral activity against HIV1 BaL in peripheral blood lymphocytes; type: functional, organism-based; details: Human immunodeficiency virus 1, BaL
[2] = system: Human immunodeficiency virus 1; assay: Antiviral activity against HIV1 BaL in peripheral blood lymphocytes in presence of 100% human serum; type: functional, organism-based; details: Human immunodeficiency virus 1, BaL
[3] = system: Rattus norvegicus; assay: Clearance in iv dosed rat assessed as liver blood flow; type: ADME, organism-based; details: in vivo
[4] = system: Canis familiaris; assay: Clearance in iv dosed dog assessed as liver blood flow; type: ADME, organism-based, Canis lupus familiaris; details: in vivo
[5] = Terminal elimination half life in iv dosed dog; type: ADME, organism-based, Canis lupus familiaris; details: in vivo, read-out: beta t1/2 (converted)
[6] = Oral bioavailability in dog; type: ADME, organism-based, Canis lupus familiaris; details: in vivo
[7] = Terminal elimination half life in human at 200 mg administered with fat meal every 8 hrs for 8 days measured on day 1; type: ADME, organism-based; details: in vivo, read-out: beta t1/2 (converted)
[8] = Plasma concentration in human at 50 mg administered with fat meal every 12 hrs for 8 days measured on day 1 after 12 hrs of first dose; type: ADME, organism-based
[9] = Plasma concentration in human at 200 mg administered with fat meal every 8 hrs for 8 days measured on day 1 after 12 hrs of first dose; type: ADME, organism-based
[10] = Apparent oral clearance in human at 50 mg administered with fat meal every 12 hrs for 8 days measured on day 1; type: ADME, organism-based; details: in vivo
[11] = Apparent oral clearance in human at 200 mg administered with fat meal every 12 hrs for 8 days measured on day 1; type: ADME, organism-based; details: in vivo
[12] = AUC (0 to 12 hrs) in human at 50 mg administered with fat meal every 12 hrs for 8 days measured on day 8; type: ADME, organism-based; parameters: dose 50 mg, time < 12 hr; details: plasma
[13] = AUC (0 to 12 hrs) in human at 100 mg administered with fat meal every 12 hrs for 8 days measured on day 8; type: ADME, organism-based; parameters: time < 12 hr, dose 100 mg; details: plasma
[14] = AUC (0 to 12 hrs) in human at 200 mg administered with fat meal every 12 hrs for 8 days measured on day 8; type: ADME, organism-based; parameters: dose 200 mg, time < 12 hr; details: plasma
[15] = AUC (0 to 8 hrs) in human at 200 mg administered with fat meal every 8 hrs for 8 days measured on day 8; type: ADME, organism-based; parameters: time < 8 hr, dose 200 mg; details: plasma
[16] = Cmax in human at 100 mg administered with fat meal every 12 hrs for 8 days measured on day 8; type: ADME, organism-based; parameters: dose 100 mg; details: in vivo
[17] = Cmax in human at 200 mg administered with fat meal every 12 hrs for 8 days measured on day 8; type: ADME, organism-based; parameters: dose 200 mg; details: in vivo
[18] = Cmax in human at 400 mg administered with fat meal daily for 8 days measured on day 8; type: ADME, organism-based; parameters: dose 400 mg; details: in vivo
[19] = Tmax in human at 50 mg administered with fat meal every 12 hrs for 8 days measured on day 8; type: ADME, organism-based; details: in vivo
[20] = Tmax in human at 400 mg administered with fat meal daily for 8 days measured on day 8; type: ADME, organism-based; details: in vivo
[21] = Terminal elimination half life in human at 100 mg administered with fat meal every 12 hrs for 8 days measured on day 8; type: ADME, organism-based; details: in vivo, read-out: beta t1/2 (converted)
[22] = Terminal elimination half life in human at 200 mg administered with fat meal every 12 hrs for 8 days measured on day 8; type: ADME, organism-based; details: in vivo, read-out: beta t1/2 (converted)
[23] = Terminal elimination half life in human at 200 mg administered with fat meal every 8 hrs for 8 days measured on day 8; type: ADME, organism-based; details: in vivo, read-out: beta t1/2 (converted)
[24] = Oral bioavailability in monkey; type: ADME, organism-based, Macaca mulatta; details: rhesus monkey, in vivo
[25] = system: Homo sapiens; assay: Toxicity in human assessed as headache at 50 to 200 mg administered as single dose; type: organism-based; details: in vivo
[26] = system: Homo sapiens; assay: Toxicity in human assessed as changes in 12-lead ECG at 50 to 200 mg administered as single dose; type: organism-based; details: in vivo
[27] = system: Homo sapiens; assay: Toxicity in human assessed as changes in continuous telemetry monitoring at 50 to 200 mg administered as single dose; type: organism-based; details: in vivo
[28] = system: Homo sapiens; assay: Toxicity in human assessed as adverse effect at 50 mg administered every 12 hrs for 8 days; type: organism-based; details: in vivo
[29] = system: Homo sapiens; assay: Toxicity in human assessed as dizziness at 50 mg administered every 12 hrs for 8 days; type: organism-based; details: in vivo
[30] = system: Homo sapiens; assay: Toxicity in human assessed as dizziness at 100 mg administered every 12 hrs for 8 days; type: organism-based; details: in vivo
[31] = system: Homo sapiens; assay: Toxicity in human assessed as headache at 200 mg administered every 12 hrs for 8 days; type: organism-based; details: in vivo
[32] = organism: Homo sapiens; assay: Toxicity in human assessed as adverse effect at 400 mg daily for 8 days; type: organism-based; details: in vivo, 192 h
[33] = organism: Homo sapiens; assay: Toxicity in human assessed as headache at 400 mg daily for 8 days; type: organism-based; details: in vivo, 192 h
[34] = system: Homo sapiens; assay: Toxicity in human assessed as headache at 200 mg administered every 8 hrs for 8 days; type: organism-based; details: in vivo
[35] = system: Homo sapiens; assay: Toxicity in human assessed as changes in hematology at 50 to 400 mg after sequential repeated administration for 8 days; type: organism-based; details: in vivo, 192 h
[36] = system: Homo sapiens; assay: Toxicity in human assessed as changes in 12-lead ECG at 50 to 400 mg after sequential repeated administration for 8 days; type: organism-based; details: in vivo, 192 h
[37] = system: Homo sapiens; assay: Toxicity in human assessed as changes in continuous telemetry monitoring at 50 to 400 mg after sequential repeated administration for 8 days; type: organism-based; details: in vivo, 192 h
[38] = Apparent oral clearance in human at 200 mg administered with fat meal every 12 hrs for 8 days measured on day 8; type: ADME, organism-based; details: in vivo
[39] = Apparent oral clearance in human at 400 mg administered with fat meal daily for 8 days measured on day 8; type: ADME, organism-based; details: in vivo
[40] = Apparent oral clearance in human at 200 mg administered with fat meal every 8 hrs for 8 days measured on day 8; type: ADME, organism-based; details: in vivo
[41] = system: Homo sapiens; assay: Toxicity in human assessed as increase in LDL cholesterol level at 50 to 400 mg after sequential repeated dose administration for 8 days relative to basal level; type: organism-based; details: in vivo, 192 h
[42] = Cmax in fasted human at 200 mg administered as single dose; type: ADME, organism-based; parameters: dose 200 mg; details: in vivo
[43] = Cmax in fasted human at 400 mg administered as single dose; type: ADME, organism-based; parameters: dose 400 mg; details: in vivo
[44] = Cmax in human at 200 mg administered with fat meal as single dose; type: ADME, organism-based; parameters: dose 200 mg; details: in vivo
[45] = Tmax in fasted human at 50 mg administered as single dose; type: ADME, organism-based; details: in vivo
[46] = Tmax in fasted human at 200 mg administered as single dose; type: ADME, organism-based; details: in vivo
[47] = Terminal elimination half life in fasted human at 50 mg administered as single dose; type: ADME, organism-based; details: in vivo, read-out: beta t1/2 (converted)
[48] = Terminal elimination half life in fasted human at 400 mg administered as single dose; type: ADME, organism-based; details: in vivo, read-out: beta t1/2 (converted)
[49] = Apparent oral clearance in human at 400 mg administered with fat meal as single dose; type: ADME, organism-based; details: in vivo
[50] = AUC (0 to infinity) in human at 50 mg administered with fat meal every 12 hrs for 8 days measured on day 1; type: ADME, organism-based; parameters: dose 50 mg, time infinity; details: plasma
[51] = AUC (0 to infinity) in human at 200 mg administered with fat meal every 8 hrs for 8 days measured on day 1; type: ADME, organism-based; parameters: dose 200 mg, time infinity; details: plasma
[52] = Cmax in human at 200 mg administered with fat meal every 8 hrs for 8 days measured on day 1; type: ADME, organism-based; parameters: dose 200 mg; details: in vivo
[53] = Tmax in human at 400 mg administered with fat meal daily for 8 days measured on day 1; type: ADME, organism-based; details: in vivo
[54] = Tmax in human at 200 mg administered with fat meal every 8 hrs for 8 days measured on day 1; type: ADME, organism-based; details: in vivo
[55] = Terminal elimination half life in human at 100 mg administered with fat meal every 12 hrs for 8 days measured on day 1; type: ADME, organism-based; details: in vivo, read-out: beta t1/2 (converted)
[56] = Terminal elimination half life in human at 200 mg administered with fat meal every 12 hrs for 8 days measured on day 1; type: ADME, organism-based; details: in vivo, read-out: beta t1/2 (converted)
[57] = organism: Homo sapiens; assay: Protein binding in human plasma by equilibrium dialysis assay; details: read-out: PB

## Cn1c(=O)c(C(=O)NCCO)c(O)c2ncc(Cc3ccc(F)cc3)cc21 [GSK-364735]
[1]
  IC50: 1.2 nM
[2]
  IC50: 42 nM
  IC90: 168 nM
[3]
  QH: 5.8%
[4]
  QH: 27.8%
[5]
  half-life: 1.5 h
[6]
  bioavailability: 6%
[7]
  half-life: 3.7 h
[8]
  concentration at 12 h: 93 ng/mL
[9]
  concentration at 12 h: 130 ng/mL
[10]
  CL/F: 217 mL/min
[11]
  CL/F: 367 mL/min
[12]
  AUC at 12 h: 5600 ng·h/mL
[13]
  AUC at 12 h: 12000 ng·h/mL
[14]
  AUC at 12 h: 9600 ng·h/mL
[15]
  AUC at 8 h: 4900 ng·h/mL
[16]
  Cmax: 2600 ng/mL
[17]
  Cmax: 1600 ng/mL
[18]
  Cmax: 2100 ng/mL
[19]
  Tmax: 3.75 h
[20]
  Tmax: 4 h
[21]
  half-life: 4.2 h
[22]
  half-life: 2.8 h
[23]
  half-life: 4 h
[24]
  bioavailability: 6%
[25]
  Activity: 4%
[26]
  Activity: Non-toxic
[27]
  Activity: Non-toxic
[28]
  Activity: 25%
[29]
  Activity: Non-toxic
[30]
  Activity: 13%
[31]
  Activity: 13%
[32]
  Activity: Non-toxic
[33]
  Activity: Non-toxic
[34]
  Activity: 13%
[35]
  Activity: Non-toxic
[36]
  Activity: Non-toxic
[37]
  Activity: Non-toxic
[38]
  CL/F: 350 mL/min
[39]
  CL/F: 550 mL/min
[40]
  CL/F: 683 mL/min
[41]
  Activity: 0.5 mg/dL
[42]
  Cmax: 1100 ng/mL
[43]
  Cmax: 1300 ng/mL
[44]
  Cmax: 1300 ng/mL
[45]
  Tmax: 1.5 h
[46]
  Tmax: 2.5 h
[47]
  half-life: 3.1 h
[48]
  half-life: 6.6 h
[49]
  CL/F: 783 mL/min
[50]
  AUC(0-inf): 4000 ng·h/mL
[51]
  AUC(0-inf): 5900 ng·h/mL
[52]
  Cmax: 1100 ng/mL
[53]
  Tmax: 5 h
[54]
  Tmax: 3.75 h
[55]
  half-life: 3.1 h
[56]
  half-life: 3.9 h
[57]
  fraction unbound: 0.01
